Test results as given in patent US5968791A, “Plant lysophosphatidic acid acyltransferases” (Calgene, Inc., priority 1995, dated 1999).

Experiments:
[1] = molecular target: T1, LPAAT of transformant 5511-5 (Cocos nucifera, UniProt Q42670); assay: LPAAT acyl-CoA specificity, P2 preparation of LPAAT-transformed line 5511-5; type: biochemical, Rapeseed; conditions: acyl-CoA donor varied at 5 μM, acceptor 12:0-LPA; 30 minute reaction
T1 construct: crude P2 membranes, host LPAAT also present
T1 sequence (Q42670 1-308): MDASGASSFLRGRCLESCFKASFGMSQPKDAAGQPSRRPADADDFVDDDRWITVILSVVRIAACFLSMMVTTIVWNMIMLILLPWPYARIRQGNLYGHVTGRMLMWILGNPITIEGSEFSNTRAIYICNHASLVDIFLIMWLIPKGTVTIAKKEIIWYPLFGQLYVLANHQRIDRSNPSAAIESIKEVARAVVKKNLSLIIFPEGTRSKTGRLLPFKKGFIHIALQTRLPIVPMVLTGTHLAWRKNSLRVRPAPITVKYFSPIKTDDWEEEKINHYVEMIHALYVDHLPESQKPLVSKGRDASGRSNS
Description: Detailed acyl-CoA chain-length specificity analysis of control P2 preparations and LPAAT-transformed line 5511-5 were determined as described above, using the original 30 minute reaction time. The acyl-CoA substrates for this analysis are present in methanol, and thus the assay also had the following modifications. The first solution placed in the assay vial was the volume of each radiolabeled acyl-CoA required for 5 μM final assay concentration. […] After mixing to redissolve the acyl-CoA off the vial wall, the reaction is started by addition of 25 μl of a 5-fold diluted P2 preparation and continued as before. Acyl-CoA substrates used in this analysis were 8:0, 10:0, 12:0, 14:0, 16:0, 18:0, and 18:1. The acceptor substrate in these assays was 12:0-LPA.

[2] = molecular target: T2, coconut medium-chain LPAAT (Cocos nucifera, UniProt Q42670); assay: Assay of solubilized coconut LPAAT (S3 preparation) with phospholipid activation; type: biochemical; conditions: radioactivity of PA product resolved on TLC, after 30 min assay; S3 reactivated with PLs; acceptor 12:0-LPA
T2 construct: The frozen coconut P2 preparation is thawed and diluted in a volume of P2 Buffer; from tissue; host or cells: immature coconut endosperm, solubilized S3 supernatant of P2 membranes
T2 sequence (Q42670 1-308): T1 sequence (Q42670 1-308)
Description: After solubilization of LPAAT protein from plant membranes as described below, modification of the above assay conditions is required in order to detect maximum LPAAT activity. This is especially important after the solubilized LPAAT has been chromatographed on at least one column. The important modification to the assay is the addition, at the start of the assay procedure, of 1 μl of a concentrated phospholipid (PL) solution to 20 μl of the LPAAT-containing sample in a glass vial. The high concentrations of CHAPS (at least 1% w/v) and NaCl (typically 0.5M or greater) in the solubilized LPAAT preparation aid in dispersal of the phospholipids. The phospholipid solution is obtained by sonicating crude soybean phospholipids (L-phosphatidylcholine from soybean, "Type IVs" obtained from Sigma Chemical Company, St. Louis) at 50 mg/ml in 0.5% (w/v) CHAPS (3-[(3-cholamidopropyl) -dimethylammonio]-1-propane-sulfonate) until a uniform suspension is obtained.
The remaining assay ingredients (as described above), with the exception of the acyl-CoA substrate, are then added as 219 μl of a mixture. […] Radiolabeled acyl-CoA (10 μl, or an appropriately adjusted volume as indicated above) is added to start the LPAAT-catalyzed reaction and the rest of the assay procedure is completed as described above.
All steps are carried out at 0-4° C. The frozen coconut P2 preparation is thawed and diluted in a volume of P2 Buffer to achieve a protein concentration of 0.94 mg/ml P2 protein. Protein concentration is determined by Coomassie dye staining relative to a bovine serum albumin standard. The P2 membrane suspension is then diluted with an equal volume of Solubilization Buffer (50 mM HEPES-NaOH, pH 7.5, […], 20% (w/v) glycerol, 4.5% (w/v) CHAPS, 100 μM Pefabloc, 1 μM leupeptin, 1 μM Pepstatin A, and 5 mM β-ME), resulting in final concentrations of 1M NaCl, 2.25% (w/v) detergent, and 0.47 mg/ml protein. These component concentrations, and the resulting detergent/protein ratio of 48/1 (w/w), are important for optimal solubilization. The preparation is then incubated on ice for 30 minutes with occasional, gentle stirring, followed by centrifugation at 252,000×g for 2 hours. The resulting supernatant fraction (S3) is filtered through buffer-wetted Miracloth, and may then be stored frozen (-70) with only slight loss of activity. Optimally, it is applied to chromatography columns without an intervening freeze-thaw cycle.
Assay of the coconut medium-chain LPAAT activity after solubilization (S3 preparation) and reactivation with PLs, using different acyl-CoA substrates, provides the following results (Table 3). In all these assays the acceptor substrate is 12:0-LPA.

coconut LPAAT = molecular target: T3, coconut LPAAT (Cocos nucifera, UniProt Q42670); assay: Acyl-CoA specificity of coconut LPAAT expressed in E. coli (pCGN5505), membrane fractions; type: biochemical; design: the SalI/BamHI fragment of pCGN5504 containing the entire coconut LPAAT encoding region; made in house; host or cells: E. coli BL21(DE3), membrane fractions; conditions: acceptor 12:0-LPA
T3 sequence (Q42670 1-308): T1 sequence (Q42670 1-308)
Description: The samples are centrifuged at 12,000 g for 15 minutes. The resulting supernatant fractions are centrifuged for two hours at 134,000 g, and the pelleted membranes suspended in 50 mM HEPES, 200 mM NaCl, 20% (w/v) glycerol, 5 mM β-mercaptoethanol, pH 7.5. Membrane fractions are assayed for acyl-CoA substrate specificities with 12:0-LPA and various acyl-CoA species as described in Example 1. Membrane preparations from cultures of E. coli and from immature coconut endosperm are combined with soybean phospholipids and diluted in 1M NaCl in Buffer A to simulate the pre-assay conditions of the solubilized enzyme.

Row | Structure (SMILES) | Cpm PA Product, 5511-5 [1] | LPAAT Activity, solubilized coconut LPAAT [2] | utilization by E. coli expressed coconut LPAAT (coconut LPAAT)
1 | CCCCCCCC(=O)SCCNC(=O)CCNC(=O)[C@H](O)C(C)(C)COP(=O)(O)OP(=O)(O)OC[C@H]1O[C@@H](n2cnc3c(N)ncnc32)[C@H](O)[C@@H]1OP(=O)(O)O [8:0] | 454 Cpm | 16 cpm | some minor activity detectable
2 | CCCCCCCCCC(=O)SCCNC(=O)CCNC(=O)[C@H](O)C(C)(C)COP(=O)(O)OP(=O)(O)OC[C@H]1O[C@@H](n2cnc3c(N)ncnc32)[C@H](O)[C@@H]1OP(=O)(O)O [10:0] | 5648 Cpm | 162 cpm | most active
3 | CCCCCCCCCCCC(=O)SCCNC(=O)CCNC(=O)[C@H](O)C(C)(C)COP(=O)(O)OP(=O)(O)OC[C@H]1O[C@@H](n2cnc3c(N)ncnc32)[C@H](O)[C@@H]1OP(=O)(O)O [12:0, lauroyl-CoA] | 9337 Cpm | 205 cpm | most active
4 | CCCCCCCCCCCCCC(=O)SCCNC(=O)CCNC(=O)[C@H](O)C(C)(C)COP(=O)(O)OP(=O)(O)OC[C@H]1O[C@@H](n2cnc3c(N)ncnc32)[C@H](O)[C@@H]1OP(=O)(O)O [14:0] | 5080 Cpm | 84 cpm | most active
5 | CCCCCCCCCCCCCCCC(=O)SCCNC(=O)CCNC(=O)[C@H](O)C(C)(C)COP(=O)(O)OP(=O)(O)OC[C@H]1O[C@@H](n2cnc3c(N)ncnc32)[C@H](O)[C@@H]1OP(=O)(O)O [16:0] | 4569 Cpm | 18 cpm | –
6 | CCCCCCCC/C=C\CCCCCCCC(=O)SCCNC(=O)CCNC(=O)[C@H](O)C(C)(C)COP(=O)(O)OP(=O)(O)OC[C@H]1O[C@@H](n2cnc3c(N)ncnc32)[C@H](O)[C@@H]1OP(=O)(O)O [18:1, oleoyl-CoA] | 8430 Cpm | 30 cpm | –
